One series concerns CHO cells. In kind it is cell-based. The settings on record: for % new chol / ug cholest. / ug new chl / 372/368: 5 uM, CHO cells; for % new chol / ug cholest. / ug new chl: duplicate samples; for 372/368: ion ratio m/z 372 to m/z 368, duplicate samples.
A further series concerns SLOS fibroblasts. In kind it is cell-based, human. As to the method: The effect of 27-hydroxy-7-dehydrocholesterol on cholesterol synthesis was studied in CHO cells (Table 2). SLOS fibroblasts were plated at a density of 375,000 cells in a T-25 flask in DMEM containing 10% fetal bovine serum. After 24 hours, the media was changed to McCoy's 5A containing 7.5% lipoprotein deficient serum and 25% D2O. To these cultures, either 5 μM of 27-hydroxycholesterol or 27-hydroxy-7-dehydrocholesterol in hydroxypropyl-β-cyclodextrin were added. Control cultures had only the vehicle added. Media was changed on day 3 and cell pellets were obtained on day 5. Newly synthesized 7-DHC was determined by a combination of GLC-FID and GLC-MS. At a medium concentration of 5 μM 27-hydroxy-7-dehydrocholesterol, the synthesis rate of 7-DHC fell to less than 2 ng/day/T-25 flask in each cell line. […] In untreated cultures, the rates of 7-DHC synthesis were 326±8 and 1414±88 ng/day/T-25 flask (mean±SD) for A2SLO and 4350SLO respectively.

“And” between values parts separate entries of the source, which are not always exact repeats. Identical values can stand only once. Like-named read-outs stand apart in the source and are kept apart here.

With `CC(CO)CCC[C@@H](C)[C@H]1CC[C@H]2C3=CC=C4C[C@@H](O)CC[C@]4(C)[C@H]3CC[C@]12C` (stereo partly drawn) [27-hydroxy-7-dehydrocholesterol, cholesta-5,7-diene-3β-27 diol], in the series on CHO cells, the “% new chol” value was 2.6% and 2.9%; the ug cholest. was 29.5 µg and 32.6 µg; the ug new chl is 0.78 µg and 0.95 µg; the 372/368 is 0.0079 and 0.0087. Further, the “inhibition of cholesterol synthesis compared with an equimolar amount of 27-hydroxycholesterol” value in the series on CHO cells (5 μM, cell culture) is reported as “slightly greater”. The “inhibition of cholesterol synthesis (in words)” value in the series on CHO cells (cell culture assays) is “potent inhibitor of cholesterol synthesis”. Also, in the series with SLOS fibroblasts, the “metabolism to 27-hydroxycholesterol in SLOS fibroblasts” value is on record as “did not metabolize”. Also, the “synthesis rate of 7-DHC” value in the series on SLOS fibroblasts (medium concentration 5 μM, each cell line (A2SLO and 4350SLO), untreated 326±8 and 1414±88) is “less than 2 ng/day/T-25 flask”.
For `CC(CO)CCC[C@@H](C)[C@H]1CC[C@H]2[C@@H]3CC=C4C[C@@H](O)CC[C@]4(C)[C@H]3CC[C@]12C` (stereo partly drawn) [27-hydroxycholesterol, cholest-5-ene-3 β, 27-diol, reference compound], in the series on CHO cells (listed as 27OH), the “% new chol” value was 4.4% and 3.6%; the ug cholest. is 29.9 µg and 33.1 µg; the ug new chl is 1.3 µg and 1.2 µg; the 372/368 is 0.013 and 0.011.

Values taken from US20040121992A1, “Therapeutic methods of reducing cholesterol accumulation” (priority 2002, published 2004).
